Read-outs that look alike come from different tables or passages of the source.

Here are results for ten molecules from article PMC5515969, “Effects of 31 FDA approved small-molecule kinase inhibitors on isolated rat liver mitochondria” (Archives of Toxicology, 2016).

Data set [1] deals with RCC I. The data set can be described thus: RCC I activity in submitochondrial particles. Format: biochemical, rat. Further details: key to RCC I at 10XCmax / RCC I at 100XCmax / RCC I at 50XCmax / RCC I at 30XCmax / RCC I at 20XCmax: activity relative to DMSO-treated controls (control set as 1 = 100%). The conditions noted are these: for RCC activity I: 15 min, DMSO-treated = 100. Put shortly: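 First, submitochondrial particles (1 mg/ml) are incubated with inhibitor for 15 min. Next, complex activities are followed spectrophotometrically, with RCC I taken as the difference between buffers lacking and containing rotenone. Finally, activities are expressed relative to DMSO controls set at 1.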

On the set-up of data set [2]: method as in product labeling. The conditions noted are these: ref product labeling, cited from earlier work; for Labeling for cardiotoxicity: BBW: black box warning, W&P: Warnings and Precautions.
The target in data set [3] is T1, RCC II (Rattus norvegicus, UniProt P21913+Q641Z9+Q6PCT8+Q920L2).
T1 construct: Submitochondrial particles were prepared by subjecting the intact mitochondria to three successive freeze–thaw cycles; from tissue; host or cells: rat liver mitochondria, used as submitochondrial particles
T1 sequence (Q920L2 35-656): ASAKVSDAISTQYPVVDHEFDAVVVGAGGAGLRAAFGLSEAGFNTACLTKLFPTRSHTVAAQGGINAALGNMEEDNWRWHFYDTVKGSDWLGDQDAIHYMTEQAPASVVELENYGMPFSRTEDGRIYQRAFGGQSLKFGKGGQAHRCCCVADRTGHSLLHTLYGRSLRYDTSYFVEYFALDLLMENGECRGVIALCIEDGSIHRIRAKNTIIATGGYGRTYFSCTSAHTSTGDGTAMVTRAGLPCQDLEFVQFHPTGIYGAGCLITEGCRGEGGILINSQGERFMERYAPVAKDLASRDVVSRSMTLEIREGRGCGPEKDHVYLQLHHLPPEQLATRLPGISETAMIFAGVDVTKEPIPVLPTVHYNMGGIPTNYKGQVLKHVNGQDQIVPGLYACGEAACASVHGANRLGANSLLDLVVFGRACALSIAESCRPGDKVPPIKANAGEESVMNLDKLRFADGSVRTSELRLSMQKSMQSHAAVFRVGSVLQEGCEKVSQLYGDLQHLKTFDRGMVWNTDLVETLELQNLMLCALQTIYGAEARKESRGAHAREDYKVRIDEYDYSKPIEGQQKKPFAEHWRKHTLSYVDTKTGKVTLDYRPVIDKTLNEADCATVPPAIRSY
T1 sequence (P21913 31-282): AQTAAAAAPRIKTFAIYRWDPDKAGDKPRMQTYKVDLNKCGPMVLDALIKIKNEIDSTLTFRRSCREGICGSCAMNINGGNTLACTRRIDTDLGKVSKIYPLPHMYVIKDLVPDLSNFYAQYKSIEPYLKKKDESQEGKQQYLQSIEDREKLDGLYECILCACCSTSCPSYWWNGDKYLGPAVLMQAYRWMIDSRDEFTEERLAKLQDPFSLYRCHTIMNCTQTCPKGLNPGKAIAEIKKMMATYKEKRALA
T1 sequence (Q641Z9 1-169): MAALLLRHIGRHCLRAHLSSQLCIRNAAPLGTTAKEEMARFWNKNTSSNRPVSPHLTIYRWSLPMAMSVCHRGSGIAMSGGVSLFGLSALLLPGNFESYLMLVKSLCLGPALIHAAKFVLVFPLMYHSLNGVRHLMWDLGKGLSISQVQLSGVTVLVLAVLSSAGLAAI
T1 sequence (Q6PCT8 57-159): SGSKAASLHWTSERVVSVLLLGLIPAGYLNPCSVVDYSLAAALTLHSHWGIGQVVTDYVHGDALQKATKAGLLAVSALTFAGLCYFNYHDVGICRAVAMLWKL
The data set can be described thus: RCC II activity in submitochondrial particles. Format: biochemical. Further details: key: activity relative to DMSO-treated controls (control set as 1 = 100%). Put shortly:
(§1)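 Abs 340 nm (I/V) or 600 nm (II), 1-min reads × 6 min; 550 nm (III, IV), 10-s reads × 2 min. RCC I = rotenone-free minus rotenone rate. DMSO control = 1.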

For data set [4], the system named is RCC V. The data set can be described thus: RCC V activity in submitochondrial particles. For RCC V at 5XCmax: key: 0 indicates that the drug had no effects (negative). Format: biochemical, rat. The conditions noted are these: for RCC activity V: 15 min, DMSO-treated = 100. In short, it runs like this:
as §1

For data set [5] the following is noted: ref product labeling, cited from earlier work.
The mark [6] stands for this setting: relative to DMSO treated samples.

With `CNC(=O)c1ccccc1Sc1ccc2c(/C=C/c3ccccn3)n[nH]c2c1` [Axitinib], the “RCC I at 10XCmax” value in data set [1] (setting [6]) was 0. Further, in data set [2], the Labeling for cardiotoxicity entry was “W&P: Cardiac Failure” and the “Potential for cardiotoxicity (based on labeling)” value (“Potential for cardiotoxicity” below) was 1. Moreover, in data set [3] (setting [6]), the “RCC II at 1.0XCmax” value turned out to be 0, the “RCC II at 2.5XCmax” value is listed as 0, the “RCC II at 5XCmax” value is 0 and the “RCC II at 10XCmax” value is recorded as 0. Moreover, in data set [3] (setting [6]), the “RCC II at 20XCmax” value amounted to 0, the “RCC II at 30XCmax” value turned out to be 0, the “RCC II at 50XCmax” value is given as 0 and the “RCC II at 100XCmax” value was found to be 0. In data set [4] (setting [6]), the “RCC V at 5XCmax” value came to 0 and the “RCC V at 50XCmax” value is recorded as 0.

Turning to `COc1cc(Nc2c(C#N)cnc3cc(OCCCN4CCN(C)CC4)c(OC)cc23)c(Cl)cc1Cl` [Bosutinib], in data set [1] (setting [6]), the “RCC I at 10XCmax” value turned out to be 0 and the “RCC I at 100XCmax” value amounted to 88.03±3.01. The “RCC activity I” value in data set [1] (100-fold Cmax) is reported as 88.03 ± 3.01 % of control. For the same molecule, in data set [2], the “Potential for cardiotoxicity” value is given as 0. In data set [3] (setting [6]), the “RCC II at 1.0XCmax” value is on record as 0, the “RCC II at 2.5XCmax” value amounted to 0, the “RCC II at 5XCmax” value is reported as 0 and the “RCC II at 10XCmax” value worked out at 0. Besides, in data set [3] (setting [6]), the “RCC II at 20XCmax” value is reported as 0, the “RCC II at 30XCmax” value was 0, the “RCC II at 50XCmax” value is 0 and the “RCC II at 100XCmax” value is recorded as 0. Also, in data set [4] (setting [6]), the “RCC V at 5XCmax” value came to 0 and the “RCC V at 50XCmax” value is 0. Besides, the “RCC activity V” value in data set [4] (100-fold Cmax) is given as 91.53 ± 6.49 % of control.

With `O=C(c1ccc(F)c(F)c1Nc1ccc(I)cc1F)N1CC(O)([C@@H]2CCCCN2)C1` [Cobimetinib], the “RCC I at 10XCmax” value in data set [1] (DMSO treated samples set as 1) came out at 0. In addition, in data set [3] (DMSO treated samples set as 1), the “RCC II at 1.0XCmax” value worked out at 0, the “RCC II at 2.5XCmax” value came to 0, the “RCC II at 5XCmax” value is 0 and the “RCC II at 10XCmax” value was determined as 0. Also, in data set [3] (DMSO treated samples set as 1), the “RCC II at 20XCmax” value was determined as 0, the “RCC II at 30XCmax” value was found to be 0, the “RCC II at 50XCmax” value is 0 and the “RCC II at 100XCmax” value was determined as 0. Further, in data set [4] (DMSO treated samples set as 1), the “RCC V at 5XCmax” value stood at 0 and the “RCC V at 50XCmax” value is 0. Also, in data set [5] (BBW: black box warning, W&P: Warnings and Precautions), the Labeling for cardiotoxicity result is “W&P: Cardiomyopathy”. Besides, the “Potential for cardiotoxicity” value in data set [5] was 1.

`COc1cc2nccc(Oc3ccc(NC(=O)NC4CC4)c(Cl)c3)c2cc1C(N)=O` [Lenvatinib]: the “RCC I at 10XCmax” value in data set [1] (DMSO treated samples set as 1) came to 0. Moreover, in data set [3] (DMSO treated samples set as 1), the “RCC II at 1.0XCmax” value is given as 0, the “RCC II at 2.5XCmax” value was 0, the “RCC II at 5XCmax” value stood at 0 and the “RCC II at 10XCmax” value is 0. For the same molecule, in data set [3] (DMSO treated samples set as 1), the “RCC II at 20XCmax” value turned out to be 0, the “RCC II at 30XCmax” value stood at 0, the “RCC II at 50XCmax” value is reported as 0 and the “RCC II at 100XCmax” value was found to be 0. Also, in data set [4] (DMSO treated samples set as 1), the “RCC V at 5XCmax” value is 0 and the “RCC V at 50XCmax” value is on record as 0.

For the molecule `COC(=O)c1ccc2c(c1)NC(=O)/C2=C(\Nc1ccc(N(C)C(=O)CN2CCN(C)CC2)cc1)c1ccccc1` [Nintedanib], the “RCC I at 10XCmax” value in data set [1] (DMSO treated samples set as 1) is recorded as 0. Further, in data set [3] (DMSO treated samples set as 1), the “RCC II at 1.0XCmax” value turned out to be 0, the “RCC II at 2.5XCmax” value turned out to be 0, the “RCC II at 5XCmax” value amounted to 0 and the “RCC II at 10XCmax” value was 0. Also, in data set [3] (DMSO treated samples set as 1), the “RCC II at 20XCmax” value is 0, the “RCC II at 30XCmax” value is reported as 0, the “RCC II at 50XCmax” value is 0 and the “RCC II at 100XCmax” value amounted to 0. Besides, in data set [4] (DMSO treated samples set as 1), the “RCC V at 5XCmax” value stood at 0 and the “RCC V at 50XCmax” value stood at 0. For the same molecule, the “Potential for cardiotoxicity” value in data set [5] is on record as 0.

As for `COc1cc2c(Nc3ccc(Br)cc3F)ncnc2cc1OCC1CCN(C)CC1` [Vandetanib], in data set [1] (setting [6]), the “RCC I at 10XCmax” value amounted to 0 and the “RCC I at 100XCmax” value is reported as 65.88±7.15. Further, the “RCC activity I” value in data set [1] (50-fold Cmax) is given as 87.71 ± 0.58 % of control. Further, in data set [1] (50XCmax, relative to DMSO treated samples), the “RCC I at 50XCmax” value is 87.71±0.58. For the same molecule, in data set [1] (100-fold Cmax), the “RCC activity I” value is 65.88 ± 7.15 % of control. Besides, the “lowest concentration inhibiting RCC I” value in data set [1] (submitochondrial particles) was found to be 50 fold Cmax. Moreover, in data set [2], the Labeling for cardiotoxicity entry is listed as “BBW” and the “Potential for cardiotoxicity” value is on record as 1. In addition, in data set [3] (setting [6]), the “RCC II at 1.0XCmax” value turned out to be 0, the “RCC II at 2.5XCmax” value was 0, the “RCC II at 5XCmax” value is reported as 0 and the “RCC II at 10XCmax” value is recorded as 0. Besides, in data set [3] (setting [6]), the “RCC II at 20XCmax” value was found to be 0, the “RCC II at 30XCmax” value is given as 0, the “RCC II at 50XCmax” value came out at 0 and the “RCC II at 100XCmax” value is listed as 0. The “RCC V at 5XCmax” value in data set [4] (setting [6]) is on record as 0. The “RCC activity V” value in data set [4] (50-fold Cmax) is reported as 95.65 ± 4.66 % of control. In addition, the “RCC activity V” value in data set [4] (100-fold Cmax) is reported as 85.15 ± 8.36 % of control.

`CCCS(=O)(=O)Nc1ccc(F)c(C(=O)c2c[nH]c3ncc(-c4ccc(Cl)cc4)cc23)c1F` [Vemurafenib]: the “RCC I at 10XCmax” value in data set [1] (setting [6]) turned out to be 0. Moreover, in data set [2], the Labeling for cardiotoxicity result is “W&P: QT Prolongation” and the “Potential for cardiotoxicity” value is listed as 1. In data set [3] (setting [6]), the “RCC II at 1.0XCmax” value turned out to be 0, the “RCC II at 2.5XCmax” value was 0, the “RCC II at 5XCmax” value is listed as 0 and the “RCC II at 10XCmax” value was 0. Further, in data set [3] (setting [6]), the “RCC II at 20XCmax” value was found to be 0, the “RCC II at 30XCmax” value turned out to be 0, the “RCC II at 50XCmax” value is recorded as 0 and the “RCC II at 100XCmax” value came to 0. Also, the “RCC V at 5XCmax” value in data set [4] (setting [6]) is 0.

For `Cc1nc(Nc2ncc(C(=O)Nc3c(C)cccc3Cl)s2)cc(N2CCN(CCO)CC2)n1` [dasatinib (free base)], the “RCC I at 10XCmax” value in data set [1] (setting [6]) is recorded as 0. In data set [2], the Labeling for cardiotoxicity result is “W&P: Cardiovascular events;QT Interval Prolongation” and the “Potential for cardiotoxicity” value is listed as 1. Further, in data set [3] (setting [6]), the “RCC II at 1.0XCmax” value amounted to 0, the “RCC II at 2.5XCmax” value was found to be 0, the “RCC II at 5XCmax” value is 0 and the “RCC II at 10XCmax” value is 0. In addition, in data set [3] (setting [6]), the “RCC II at 20XCmax” value was determined as 0, the “RCC II at 30XCmax” value came to 0, the “RCC II at 50XCmax” value is reported as 0 and the “RCC II at 100XCmax” value was 0. For the same molecule, in data set [4] (setting [6]), the “RCC V at 5XCmax” value came out at 0 and the “RCC V at 50XCmax” value came to 0.

With `N#CC[C@H](C1CCCC1)n1cc(-c2ncnc3[nH]ccc23)cn1` [ruxolitinib phosphate], in data set [1] (setting [6]), the “RCC I at 10XCmax” value was found to be 0. The “Potential for cardiotoxicity” value in data set [2] is on record as 0. In data set [3] (setting [6]), the “RCC II at 1.0XCmax” value is 0, the “RCC II at 2.5XCmax” value came out at 0, the “RCC II at 5XCmax” value was determined as 0 and the “RCC II at 10XCmax” value is recorded as 0. In addition, in data set [3] (setting [6]), the “RCC II at 20XCmax” value is 0, the “RCC II at 30XCmax” value is on record as 0, the “RCC II at 50XCmax” value came to 0 and the “RCC II at 100XCmax” value came to 0. In data set [4] (setting [6]), the “RCC V at 5XCmax” value is reported as 0 and the “RCC V at 50XCmax” value is reported as 0.

Turning to `CCN(CC)CCNC(=O)c1c(C)[nH]c(/C=C2\C(=O)Nc3ccc(F)cc32)c1C` [sunitinib malate], the “RCC I at 10XCmax” value in data set [1] (setting [6]) was found to be 0. Besides, in data set [2], the Labeling for cardiotoxicity entry is “W&P: Cardiovascular events;QT Interval Prolongation and Torsade de Pointes”; the “Potential for cardiotoxicity” value is reported as 1. In data set [3] (setting [6]), the “RCC II at 1.0XCmax” value came out at 0, the “RCC II at 2.5XCmax” value is 0, the “RCC II at 5XCmax” value is listed as 0 and the “RCC II at 10XCmax” value is on record as 0. In data set [3] (setting [6]), the “RCC II at 20XCmax” value is 0, the “RCC II at 30XCmax” value was found to be 0, the “RCC II at 50XCmax” value amounted to 0 and the “RCC II at 100XCmax” value turned out to be 0. In addition, in data set [4] (setting [6]), the “RCC V at 5XCmax” value was found to be 0 and the “RCC V at 50XCmax” value is listed as 0.
